Test results: BindingDB's records for doi:10.1021/ml300038t (2012)
pIC50: −log10 of the molar value.

Biological target: T1, 4,4'-diapophytoene synthase (Staphylococcus aureus, UniProt A9JQL9)
T1 sequence (A9JQL9 whole entry): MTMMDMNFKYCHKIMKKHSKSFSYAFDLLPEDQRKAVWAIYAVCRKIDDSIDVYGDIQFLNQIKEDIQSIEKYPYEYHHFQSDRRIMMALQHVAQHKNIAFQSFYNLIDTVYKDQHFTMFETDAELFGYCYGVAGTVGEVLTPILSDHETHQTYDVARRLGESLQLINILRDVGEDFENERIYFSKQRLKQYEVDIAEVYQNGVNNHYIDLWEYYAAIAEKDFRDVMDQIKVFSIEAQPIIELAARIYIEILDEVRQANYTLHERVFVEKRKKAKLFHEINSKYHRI
Assay: Inhibition of Staphylococcus aureus His6-tagged CrtM expressed in Escherichia coli BL21(DE3) using Farnesyl pyrophosphate as substrate incubated for 30 mins prior to substrate addition by continuous spectrophotometric assay

CCCCCCOc1cccc(CCCNC(=O)CC(=O)C(=O)O)c1
pIC50: < 3.52

CCCCCCCCOc1ccc(C(=O)CC(=O)C(=O)O)cc1
pIC50: < 3.52
